The target in one assay is PIK3CG (human) (UniProt P48736). The experiment in a line: Inhibition of PIK3CG Kinase Activity.
A further assay deals with PIK3CA (human) (UniProt P42336). The experiment in a line: Inhibition of PIK3CA Kinase Activity.

The structures appear in SMILES notation. pIC50: −log10 of the molar value.

Sequence of PIK3CA (human) (P42336 whole entry, looked up): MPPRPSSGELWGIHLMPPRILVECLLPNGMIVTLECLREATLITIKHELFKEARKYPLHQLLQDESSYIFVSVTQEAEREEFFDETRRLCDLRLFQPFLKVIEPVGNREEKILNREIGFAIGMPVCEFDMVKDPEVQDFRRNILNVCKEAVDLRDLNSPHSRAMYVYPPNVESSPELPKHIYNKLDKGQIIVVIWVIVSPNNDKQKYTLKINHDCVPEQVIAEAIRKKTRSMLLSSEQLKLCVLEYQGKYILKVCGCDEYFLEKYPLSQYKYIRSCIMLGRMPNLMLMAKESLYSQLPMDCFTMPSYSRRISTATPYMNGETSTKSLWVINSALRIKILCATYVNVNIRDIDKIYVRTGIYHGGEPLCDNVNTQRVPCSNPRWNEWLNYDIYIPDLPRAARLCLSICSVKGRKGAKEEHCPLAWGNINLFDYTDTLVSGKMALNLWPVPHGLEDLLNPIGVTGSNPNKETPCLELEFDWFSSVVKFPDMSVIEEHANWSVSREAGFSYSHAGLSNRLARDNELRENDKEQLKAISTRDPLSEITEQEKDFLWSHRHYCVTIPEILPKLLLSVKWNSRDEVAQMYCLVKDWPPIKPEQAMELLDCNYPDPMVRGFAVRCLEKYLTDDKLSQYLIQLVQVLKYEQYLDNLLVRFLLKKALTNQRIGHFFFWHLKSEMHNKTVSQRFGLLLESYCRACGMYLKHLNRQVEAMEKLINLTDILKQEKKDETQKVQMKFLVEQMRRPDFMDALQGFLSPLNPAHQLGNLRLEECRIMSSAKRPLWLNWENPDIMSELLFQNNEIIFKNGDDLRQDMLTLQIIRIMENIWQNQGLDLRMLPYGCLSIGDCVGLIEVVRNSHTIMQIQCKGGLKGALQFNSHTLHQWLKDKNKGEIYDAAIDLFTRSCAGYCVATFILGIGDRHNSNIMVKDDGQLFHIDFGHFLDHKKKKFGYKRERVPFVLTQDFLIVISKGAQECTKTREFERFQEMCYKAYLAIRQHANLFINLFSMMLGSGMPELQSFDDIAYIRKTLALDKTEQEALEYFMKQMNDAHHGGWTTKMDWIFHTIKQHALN
Sequence of PIK3CG (human) (P48736 whole entry, looked up): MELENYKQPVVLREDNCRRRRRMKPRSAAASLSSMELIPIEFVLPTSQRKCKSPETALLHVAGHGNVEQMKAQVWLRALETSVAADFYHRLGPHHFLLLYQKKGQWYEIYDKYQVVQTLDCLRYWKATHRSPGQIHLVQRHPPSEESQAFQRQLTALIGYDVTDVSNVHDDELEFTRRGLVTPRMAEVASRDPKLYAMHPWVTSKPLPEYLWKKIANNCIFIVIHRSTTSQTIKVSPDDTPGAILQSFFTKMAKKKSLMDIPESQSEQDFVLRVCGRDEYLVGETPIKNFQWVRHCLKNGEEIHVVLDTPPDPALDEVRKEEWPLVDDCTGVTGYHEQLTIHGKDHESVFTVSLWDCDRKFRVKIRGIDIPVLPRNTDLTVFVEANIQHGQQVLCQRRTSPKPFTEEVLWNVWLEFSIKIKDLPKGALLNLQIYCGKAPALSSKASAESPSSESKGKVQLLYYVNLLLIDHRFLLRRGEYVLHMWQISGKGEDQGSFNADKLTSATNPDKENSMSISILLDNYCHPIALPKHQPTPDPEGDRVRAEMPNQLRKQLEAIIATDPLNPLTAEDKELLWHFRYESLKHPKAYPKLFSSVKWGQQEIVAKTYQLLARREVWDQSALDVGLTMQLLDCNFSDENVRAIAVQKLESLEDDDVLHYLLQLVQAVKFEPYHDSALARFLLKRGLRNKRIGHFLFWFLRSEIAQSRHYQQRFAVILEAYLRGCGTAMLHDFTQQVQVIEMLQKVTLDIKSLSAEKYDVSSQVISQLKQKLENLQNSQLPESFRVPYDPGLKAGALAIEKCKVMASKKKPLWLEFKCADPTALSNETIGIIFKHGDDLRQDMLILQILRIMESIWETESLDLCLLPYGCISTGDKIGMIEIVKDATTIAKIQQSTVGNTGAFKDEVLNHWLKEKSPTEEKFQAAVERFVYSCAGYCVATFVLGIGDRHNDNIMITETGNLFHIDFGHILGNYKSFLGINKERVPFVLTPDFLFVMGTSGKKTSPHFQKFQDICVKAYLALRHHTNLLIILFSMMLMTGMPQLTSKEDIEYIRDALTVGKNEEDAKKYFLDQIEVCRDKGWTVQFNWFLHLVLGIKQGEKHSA

For the compound `CN1CCN(C(=O)Nc2ccc(-c3nc(N4CCOCC4)c4ccc5c(ccn5C)c4n3)cc2)CC1`, at PIK3CG (human), the pIC50 (usually the negative decadic logarithm of the IC50, by convention in mol/L) is 5.00.

In the case of `Cn1ccc2c3nc(-c4cccc(C(N)=O)c4)nc(N4CCOCC4)c3ccc21`, the pIC50 is 5.59 at PIK3CA (human) and 5.13 against PIK3CG (human).

For `Cn1ccc2c3nc(-c4cccc5[nH]ccc45)nc(C4COCCN4)c3ccc21` (stereo not drawn), the pIC50 at PIK3CA (human) is 5.20; at PIK3CG (human), 5.33.

For the compound `Cn1ccc2c3nc(-c4cccc(C#N)c4)nc(N4CCOCC4)c3ccc21`, the values for the pIC50 against PIK3CA (human) and at PIK3CG (human) were 5.37 and 5.56, respectively.

Take `CN(C)CCCNC(=O)Nc1ccc(-c2nc(N3CCOCC3)c3ccc4c(ccn4C)c3n2)cc1`: on PIK3CG (human), the pIC50 is 5.00.

As for `Cn1ccc2c3nc(-c4ccc(C(=O)O)cc4)nc(N4CCOCC4)c3ccc21`, the pIC50 on PIK3CA (human) is 4.92; at PIK3CG (human), 5.01.

At PIK3CG (human), `Cn1ccc2c3nc(-c4ccc(N)cc4)nc(N4CCOCC4)c3ccc21` gave a pIC50 of 5.00.

For `CCCNC(=O)Nc1ccc(-c2nc(N3CCOCC3)c3ccc4c(ccn4C)c3n2)cc1`, the pIC50 was 5.25 at PIK3CA (human) and 5.08 against PIK3CG (human).

The record behind these values is the Kinase Knowledgebase extract (Sharma et al. 2016).
